Read-outs that look alike come from different tables or passages of the source.
Key:
[1] = Cell proliferation assay (neutral red), normal human fibroblasts; type: cell-based; settings: read-out: Cytotoxicity, CC50, Normal cells Human fibroblasts
Procedure: (§1) Method Cell Proliferation Assays: The various human fibroblast and human cervical cancer cell lines were plated at 5×10^3 per well in 96 well plates using media with 10% fetal bovine serum added and incubated for about 24 hr. Ten mM stock solutions of the compounds were prepared in 10% DMSO in distilled water. Serial drug dilutions were made in media containing 2% FBS to give a final […] concentration, added to the wells, and incubated at 37° C. for 5 days. Cytotoxicity was measured by neutral red reduction, as known in the art.

[2] = test system: Me180 (68) cervical cancer cells; assay: Cell proliferation assay (neutral red), Me180 cervical cancer cells; type: cell-based; settings: Homo sapiens, ME-180, 120 h, read-out: Cytotoxicity, CC50, Cervical Cancer Cells Me180 (68)
Procedure: as §1

[3] = test system: HeLa (18) cervical cancer cells; assay: Cell proliferation assay (neutral red), HeLa cervical cancer cells; type: cell-based; settings: Homo sapiens, 120 h, read-out: Cytotoxicity, CC50, Cervical Cancer Cells HeLa (18)
Procedure: as §1

[4] = test system: Caski (16) cervical cancer cells; assay: Cell proliferation assay (neutral red), Caski cervical cancer cells; type: cell-based; settings: Homo sapiens, Ca-Ski, 120 h, read-out: Cytotoxicity, CC50, Cervical Cancer Cells Caski (16)
Procedure: as §1

HPV-11 = HPV-11 antiviral assay, DNA PCR in HEK 293 cells; type: cell-based; settings: for Selectivity index: HPV-11 in HEK 293 cells
From the text: (§2) Assay. DNA PCR in HEK 293 cells infected with HPV-11, EC50, effective concentration 50%; CC50, 50% reduction of cell proliferation. DNA PCR by the methods reported by Chiang et al, Proc Natl Acad Sci USA. 1992. 89(13):5799-803 and Taylor and Morgan, Virology. 2003. 10; 315(1):103-9.

[5] = Cytotoxicity (reduction of cell proliferation) in HEK 293 cells; type: cell-based; settings: human, read-out: CC50 (50% reduction of cell proliferation)
From the text: as §2

HSV-2 = HSV-2 plaque reduction assay in HFF cells; type: cell-based; settings: for Selectivity index: HSV-2 in HFF cells; for EC50: plaque reduction, 3 days, read-out: EC50 (HSV-2 antiviral activity in HFF cells)
Procedure: Antiviral assay. […] Plates were allowed to incubate for 37° C. for 1 hour. […] Plates were incubated at 37° C. for 3 days and monolayers were stained with crystal violet. Plaques were counted and results are expressed as μM concentration of drug which reduced plaques by 50% versus control plates without drug. (Richards et al, Antiviral Res. 2:27, 1982)

[6] = Cytotoxicity in HFF cells (HSV-2 table); settings: human, HFF cells
HIV-1LAI = assay: HIV antiviral assay, p24 reduction in MT-2 cells; settings: for Selectivity index: CC50/EC50, HIV-1 in MT-2 cells
HFF cells = assay: Cytotoxicity in HFF cells (HSV-2 table); settings: read-out: CC50 (HFF cells); Table 10
[7] = test system: MT-2 cells (human T cell leukemia); assay: Cytotoxicity in MT-2 cells (flow cytometry, propidium iodide); type: cell-based; settings: 72 hrs
Procedure: (§3) Method of cytotoxicity determination. MT-2 cells were incubated with drug for 72 hrs and harvested. Flow count beads (Beckman Coulter, Miami, Fla.) were added to the cell suspension followed by propidium iodide staining and analysis using flow cytometer and the 50% cytotoxic concentration (CC50) was calculated from the cell counts and viability.
as §3, with “Method” for “Method of”

[8] = Human alphaherpesvirus 2, HFF, 72 h

| SMILES | Selectivity index (HPV-11) | CC50 [5] [nM] | Selectivity index (HSV-2) | EC50 (HSV-2; [8]) [nM] | CC50 [6] [nM] | Selectivity index (HIV-1LAI) | other results |
| --- | --- | --- | --- | --- | --- | --- | --- |
| CCCCCCCCCCCCCCCCCCOCCOP(=O)(COCCn1cnc2c(=O)[nH]c(N)nc21)OCc1ccccc1 (racemic) [Bn-ODE-PMEG, benzyl octadecyloxyethyl 9-[2-(phosphonomethoxy)ethyl]guanine] | >151 | > 100000 | >10 | < 1000 | – | – | CC50 at 5 days [1]: 15000 ± 1500 nM; CC50 [2]: 31 ± 20 nM; CC50 [3]: 310 ± 110 nM; CC50 [4]: 15 ± 7 nM; EC50 (HPV-11; HEK293, DNA PCR in HEK 293 cells infected with HPV-11): 660 nM |
| CCCCCCCCCCCCCCCCCCOCCOP(=O)(CO[C@H](CO)Cn1cnc2c(N)ncnc21)OCc1ccccc1 (stereo partly drawn) [Bn-ODE-(S)-HPMPA, benzyl octadecyloxyethyl 9-(S)-[3-hydroxy-2-(phosphonomethoxy)propyl]adenine] | >370 | – | >52 | < 100 | 5200 | 17.7 | CC50 at 5 days ([1]; normal human fibroblasts (HFF)): 5200 ± 3900 nM; CC50 ([2]; 5 days, neutral red): 210 ± 70 nM |
| CCCCCCCCCCCCCCCCCCOCCOP(=O)(CO[C@H](CO)Cn1ccc(N)nc1=O)OCc1ccccc1 (stereo partly drawn) [Bn-ODE-(S)-HPMPC, benzyl octadecyloxyethyl 1-(S)-[(3-hydroxy-2-phosphonomethoxy)propyl]cytosine] | – | – | >48 | < 100 | 4800 | 6.7 | – |
| CCCCCCCCCCCCCCCCCCOCCOP(=O)(COCCn1cnc2c(N)ncnc21)OCc1ccccc1 (centres unmarked) [Bn-ODE-PMEA, benzyl octadecyloxyethyl 9-[2-(phosphonomethoxy)ethyl]adenine] | – | > 100000 | – | – | – | – | – |
| CCCCCCCCCCCCCCCCCCOCCOP(=O)(COCCn1cnc2c(=O)[nH]c(N)nc21)OCc1ccccc1 (centres unmarked) [Bn-ODE-PMEG fast, benzyl octadecyloxyethyl 9-(2-phosphonomethoxyethyl)guanine] | – | – | – | – | – | – | EC50 (HSV-2): < 100 nM; CC50 (HFF cells): > 4000 nM |
| CCCCCCCCCCCCCCCCCCOCCOP(=O)(COCCn1cnc2c(=O)[nH]c(N)nc21)OCc1ccccc1 (centres unmarked) [Bn-ODE-PMEG slow, benzyl octadecyloxyethyl 9-(2-phosphonomethoxyethyl)guanine] | – | – | – | – | – | – | CC50 ([7]; Table 7, read-out: CC50, 50% Cytotoxic concentration, MT2 cells T cell leukemia): < 10 nM; CC50 ([7]; Table 8, read-out: CC50 (MT-2 cells)): < 10 nM; EC50 (HIV-1LAI; read-out: EC50 (HIV antiviral activity in MT-2 cells), p24 reduction, four days after infection): < 0.01 nM |

Reference: patent US10195222B2, “Acyclic nucleoside phosphonate diesters” (The Regents of the University of California, priority 2013, dated 2019)
